According to patent US11415576B2, “Method for measurement of vitamin D” (Roche Diagnostics Operations, Inc., priority 2014, dated 2022):
Each block holds one molecule with its values, some of them ahead of it.

Biological target: T1, ruthenylated Vitamin D-binding protein conjugate (Homo sapiens, UniProt P02774)
T1 sequence (P02774 17-474): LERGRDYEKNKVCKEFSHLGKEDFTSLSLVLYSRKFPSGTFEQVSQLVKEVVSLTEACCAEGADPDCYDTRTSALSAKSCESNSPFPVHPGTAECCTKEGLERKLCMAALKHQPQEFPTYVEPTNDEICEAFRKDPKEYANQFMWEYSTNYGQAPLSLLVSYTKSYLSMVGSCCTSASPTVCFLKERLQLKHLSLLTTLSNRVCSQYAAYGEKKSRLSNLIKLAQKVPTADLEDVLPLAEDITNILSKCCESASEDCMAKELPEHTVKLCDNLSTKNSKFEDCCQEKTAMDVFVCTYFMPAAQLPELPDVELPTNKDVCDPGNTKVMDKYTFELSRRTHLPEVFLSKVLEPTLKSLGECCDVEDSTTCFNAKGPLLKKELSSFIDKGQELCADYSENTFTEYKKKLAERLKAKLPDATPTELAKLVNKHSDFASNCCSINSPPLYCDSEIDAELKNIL
Test: Elecsys Vitamin D total immunoassay, dilution series in Diluent Universal, without or with blocking reagent

B/B0 (24 nmoL/L, Reference, without blocking reagent): 67%
B/B0 (24 nmoL/L, with mAb<24,25(OH)2VitD3> 0.075 mg/mL in R1): 95%
B/B0 (48 nmoL/L, Reference, without blocking reagent): 53%
B/B0 (48 nmoL/L, with mAb<24,25(OH)2VitD3> 0.075 mg/mL in R1): 92%
B/B0 (72 nmoL/L, Reference, without blocking reagent): 37%
B/B0 (72 nmoL/L, with mAb<24,25(OH)2VitD3> 0.075 mg/mL in R1): 91%
B/B0 (96 nmoL/L, Reference, without blocking reagent): 32%
B/B0 (96 nmoL/L, with mAb<24,25(OH)2VitD3> 0.075 mg/mL in R1): 91%
B/B0 (120 nmoL/L, Reference, without blocking reagent): 26%
B/B0 (120 nmoL/L, with mAb<24,25(OH)2VitD3> 0.075 mg/mL in R1): 88%
B/B0 (144 nmoL/L, Reference, without blocking reagent): 25%
B/B0 (144 nmoL/L, with mAb<24,25(OH)2VitD3> 0.075 mg/mL in R1): 88%
B/B0 (192 nmoL/L, Reference, without blocking reagent): 21%
B/B0 (192 nmoL/L, with mAb<24,25(OH)2VitD3> 0.075 mg/mL in R1): 86%
B/B0 (240 nmoL/L, Reference, without blocking reagent): 18%
B/B0 (240 nmoL/L, with mAb<24,25(OH)2VitD3> 0.075 mg/mL in R1): 82%
B/B0 (288 nmoL/L, Reference, without blocking reagent): 15%
B/B0 (288 nmoL/L, with mAb<24,25(OH)2VitD3> 0.075 mg/mL in R1): 76%
B/B0 (360 nmoL/L, Reference, without blocking reagent): 13%
B/B0 (360 nmoL/L, with mAb<24,25(OH)2VitD3> 0.075 mg/mL in R1): 74%
B/B0 (480 nmoL/L, Reference, without blocking reagent): 11%
B/B0 (480 nmoL/L, with mAb<24,25(OH)2VitD3> 0.075 mg/mL in R1): 66%
cross-reactivity of the reference immunoassay (without blocking reagent): showed cross-reactivity
Compound: C=C1CC[C@H](O)C/C1=C/C=C1\CCC[C@@]2(C)C1CC[C@@H]2[C@H](C)CCC(O)C(C)(C)O (stereo partly shown) [24,25(OH)2VitD3, 24,25-dihydroxyvitamin D3]

Compound: C=C1CC[C@H](O)C/C1=C/C=C1\CCC[C@]2(C)[C@@H]([C@H](C)CCCC(C)(C)O)CC[C@@H]12 [25(OH)VitD3, 25-hydroxyvitamin D3]
B/B0 (25 nmoL/L, Reference, without blocking reagent): 81%
B/B0 (25 nmoL/L, with mAb<24,25(OH)2VitD3> 0.075 mg/mL in R1): 77%
B/B0 (50 nmoL/L, Reference, without blocking reagent): 59%
B/B0 (50 nmoL/L, with mAb<24,25(OH)2VitD3> 0.075 mg/mL in R1): 63%
B/B0 (75 nmoL/L, Reference, without blocking reagent): 44%
B/B0 (75 nmoL/L, with mAb<24,25(OH)2VitD3> 0.075 mg/mL in R1): 49%
B/B0 (100 nmoL/L, Reference, without blocking reagent): 37%
B/B0 (100 nmoL/L, with mAb<24,25(OH)2VitD3> 0.075 mg/mL in R1): 42%
B/B0 (125 nmoL/L, Reference, without blocking reagent): 30%
B/B0 (125 nmoL/L, with mAb<24,25(OH)2VitD3> 0.075 mg/mL in R1): 33%
B/B0 (150 nmoL/L, Reference, without blocking reagent): 27%
B/B0 (150 nmoL/L, with mAb<24,25(OH)2VitD3> 0.075 mg/mL in R1): 30%
B/B0 (200 nmoL/L, Reference, without blocking reagent): 22%
B/B0 (200 nmoL/L, with mAb<24,25(OH)2VitD3> 0.075 mg/mL in R1): 23%
B/B0 (250 nmoL/L, Reference, without blocking reagent): 18%
B/B0 (250 nmoL/L, with mAb<24,25(OH)2VitD3> 0.075 mg/mL in R1): 18%
B/B0 (300 nmoL/L, Reference, without blocking reagent): 16%
B/B0 (300 nmoL/L, with mAb<24,25(OH)2VitD3> 0.075 mg/mL in R1): 15%
B/B0 (374 nmoL/L, Reference, without blocking reagent): 14%
B/B0 (374 nmoL/L, with mAb<24,25(OH)2VitD3> 0.075 mg/mL in R1): 13%
B/B0 (499 nmoL/L, Reference, without blocking reagent): 11%
B/B0 (499 nmoL/L, with mAb<24,25(OH)2VitD3> 0.075 mg/mL in R1): 10%
cross-reactivity of the reference immunoassay (without blocking reagent): showed cross-reactivity
